# Experimental data from publication PMC5238392, “Origin of anti-tumor activity of the cysteine-containing GO peptides and further optimization of their cytotoxic properties” (Scientific Reports, 2017).
# How the values were obtained:
# [1] = test system: ZR-75-1; experiment: Rhodamine 123 mitochondrial membrane potential, ZR-75-1; assay type: cell-based, human; conditions: 30 min after application, same scheme as H2DCFDA/DCFDA measurements
# Protocol: Finally, the same experimental scheme as described above for H2DCFDA/DCFDA measurements was also used with Rhodamine 123. […] The same observation has been made for ZR-75-1.
# The cells were seeded into 35-mm Nunc culture dishes (Thermo Scientific, USA) at 1.2 × 10^5 cells per dish and allowed to attach for 24 h. To monitor intracellular ROS in a time-dependent manner, the cells were incubated for 30 min with 10 μM of carboxy-H2DCFDA (Invitrogen, USA), then harvested with trypsin-EDTA and suspended in a fresh medium. After that GO-203 was added directly to the suspension and cell fluorescence was measured by flow cytometry at multiple time points during the following 2 hours. The same procedure was used for mitochondria-specific fluorescent dye Rhodamine 123 (Thermo Fisher Scientific, USA), which was added to a concentration of 5 μM. The complementary side scatter measurements were conducted using 488 nm laser light. In another series of experiments, we have used the related indicator of oxidative stress, H2DCFDA (Invitrogen, USA). The experiment started by adding GO-203 to the cell growth medium; then 10 min later 5 μM of H2DCFDA has been added. After 20 min incubations with H2DCFDA, the cells were harvested with trypsin-EDTA and suspended in a fresh medium. Cell fluorescence was then immediately measured by flow cytometry. […]
# [2] = test system: human lung carcinoma cell line A549; experiment: MTS cell viability assay, A549; assay type: cell-based
# Protocol: All experiments were conducted in duplicate or triplicate.
# [3] = test system: HT-1080 cells; experiment: FITC Annexin V / propidium iodide apoptosis assay, HT-1080; assay type: cell-based, human; conditions: 10 μM
# Protocol: Already 2 h after administration of 10 μM dose, the system reaches a steady state with 18% of healthy cells, 17% of early apoptotic cells, and 58% of late apoptotic cells. It remains in this state for the entire period of observations, 24 h.
# (§1) Figure 3 GO-203-induced apoptosis in HT-1080 and ZR-75-1 cells as assessed by FITC Annexin V (AnV) and propidium iodide (PI) double staining. (A–D) Flow cytometry histograms for the cells incubated for 4 h with 10 μM of GO-203 and the untreated (control) cells. (E–H) Apoptotic fractions in the GO-203-treated and untreated (control) cells as a function of incubation time and GO-203 concentration; color coding is explained in the legend. TEXT PRINTED IN THE PICTURE: (B) GO-203: HT-1080: IV.(1.90 %); HT-1080: III.(52.62 %); HT-1080: I.(19.45 %); HT-1080: II.(26.04 %) | (D) GO-203: ZR-75-1: IV.(8.19 %); ZR-75-1: III.(8.65 %); ZR-75-1: I.(37.84 %); ZR-75-1: II.(45.32 %)
# (§2) The adherent cells were rinsed with PBS, harvested using trypsin-EDTA solution and suspended in the growth medium. To analyze cell cycle phase distribution, 200 μg/ml of saponin (Fluka, USA), 250 μg/ml RNase A, and 50 μg/ml of propidium iodide (both Sigma-Aldrich, USA) were added to each sample tube, thus obtaining DNA stain buffer. After 1 h incubation at room temperature, the samples were analyzed by flow cytometry. To detect apoptosis by flow cytometry, CellEvent Caspase-3/7 Green Flow Cytometry Assay Kit (Thermo Fisher Scientific, USA) and Annexin-V FITC conjugate (BD Biosciences, USA) in combination with propidium iodide have been employed following the manufacturer’s protocols.
# (§3) Cell fluorescence was measured using CytoFLEX (Beckman Coulter, USA) flow cytometer equipped with 3 lasers (405, 488 and 633 nm). Cells were gated on FSC/SSC to remove debris. Mean fluorescence intensity from 10,000 cells was acquired.
# [4] = test system: ZR-75-1 cells; experiment: FITC Annexin V / propidium iodide apoptosis assay, ZR-75-1; assay type: cell-based, human
# Protocol: as §1
# Similarly fast apoptotic process is observed in ZR-75-1, although this cell line is less susceptible to the cytotoxic effect of GO-203. 4 h after administration of 10 μM dose, 39% of the cells remain healthy, 43% undergo early apoptosis, and 9% are in the late apoptosis stage. This proportion remains unchanged after 24 h. The fact that GO-203-induced apoptosis occurs rapidly in both sensitive and relatively insensitive cell lines is relevant in the context of its cytotoxic mechanism (discussed later in the text).
# Also illustrated in Fig. 3G,H is the dose-dependent response of the treated cells. […] It is possible that apoptotic ZR-75-1 cells in quadrant II undergo disintegration instead of moving to quadrant III, Fig. 3D. Importantly, the Annexin V data are consistent with the results of the MTS assay which registers limited damage to the ZR-75-1 cells, see Fig. 2.
# as §2, §3
# [5] = test system: HT-1080 cells; experiment: Cell cycle phase distribution, HT-1080; assay type: cell-based, human; conditions: 24 h incubation with 5 μM
# Protocol: The onset and the progression of the apoptosis are relatively fast, on the time scale of 1 h. […] Indeed, the cell cycle phase distribution remains unaffected by addition of the peptide. For example, in the untreated (control) HT-1080 sample the distribution between G0/G1, S, and G2/M phases is 52%, 23% and 26%, respectively. After 24 h incubation with 5 μM GO-203 this proportion is essentially unchanged at 50%, 24%, and 27%.
# as §2
# Figure S2. Cell cycle distribution for (A) HT-1080 cells treated with one-time dose of 5 μM GO-203 and (B) ZR-75-1 cells treated with one-time dose of 10 μM GO-203. The peptide concentrations have been chosen such as to induce significant cytotoxic effect without causing massive cell death. The data were taken 24 h after the application of the peptide.
# Figure S3. H2DCFDA/DCFDA experiment to assess the level of ROS in (A) HT-1080 cells after 30 min incubation with 5 μM GO-203 and (B) ZR-75-1 cells after 30 min incubation with 10 μM GO-203. A statistically significant difference in the intensity of DCF fluorescence response is marked by an asterisk. […]
# [6] = 4 h, representative plot Fig. 3B
# [7] = 10 μM, 4 h, representative plot Fig. 3D
# [8] = 10 μM, 4 h after administration
substance,measurement,setting,value
"[R]9CQCRRKN [GO-203, in clinical trials]",Mitochondrial membrane potential (Rhodamine 123),[1],fully maintained
same,Cell viability (MTS),"[2]; 1 × 5: single dose of 5 μM, 96 h",essentially inconsequential
same,Cell viability (MTS),"[2]; 1 × 20: single dose of 20 μM, 96 h",substantially cytotoxic
same,Cell viability (MTS),"[2]; 4/5: four daily doses of 5 μM with exchanged growth medium, 96 h",inefficient
same,Cell viability (MTS),"[2]; 4 × 5: four daily doses of 5 μM without exchanging growth medium, OD 492 nm 96 h after first application",considerable damage
same,early apoptotic cells (Annexin V/PI),[3]; 2 h after administration,17%
same,late apoptotic cells (Annexin V/PI),[3]; 2 h after administration,58%
same,healthy cells (Annexin V/PI),[3]; 2 h after administration (steady state up to 24 h),18%
same,quadrant I fraction (Annexin V/PI dot plot),[3]; [6],19.45%
same,quadrant II fraction (Annexin V/PI dot plot),[3]; [6],26.04%
same,quadrant III fraction (Annexin V/PI dot plot),[3]; [6],52.62%
same,quadrant IV fraction (Annexin V/PI dot plot),[3]; [6],1.90%
same,quadrant I fraction (Annexin V/PI dot plot),[4]; [7],37.84%
same,quadrant II fraction (Annexin V/PI dot plot),[4]; [7],45.32%
same,quadrant III fraction (Annexin V/PI dot plot),[4]; [7],8.65%
same,quadrant IV fraction (Annexin V/PI dot plot),[4]; [7],8.19%
same,early apoptosis (Annexin V/PI),[4]; [8],43%
same,late apoptosis stage (Annexin V/PI),[4]; [8],9%
same,healthy cells (Annexin V/PI),"[4]; 10 μM, 4 h after administration (unchanged after 24 h)",39%
same,viable cells at highest dose (Annexin V/PI),[4]; 20 μM,a large proportion of the cells remains viable
same,cells in S phase,[5]; control 23%,24%
same,cells in G2/M phase,[5]; control 26%,27%
same,cells in G0/G1 phase,[5]; control 52%,50%
